Results: US20090018134A1, “Compounds - 945” (AstraZeneca AB, priority 2007, published 2009)

Target: T1, mTOR (Homo sapiens, UniProt P42345)
T1 construct: FLAG; made in house
Experiment: In Vitro mTOR Kinase Assay (Echo), Test (a)(ii)
Assay type: biochemical
Settings: table of enzyme assay Test (a)(ii); read-out: Test (a)(ii) IC50
Method in brief: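 Compounds were acoustically dispensed, then incubated with FLAG-tagged mTOR (1362-2549) for 2 hours at room temperature. Reactions were quenched with EDTA plus detection antibody and AlphaScreen beads and left overnight in the dark before reading. Loss of phospho-T389 signal gave IC50 values.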

T1 sequence (P42345 1362-2549): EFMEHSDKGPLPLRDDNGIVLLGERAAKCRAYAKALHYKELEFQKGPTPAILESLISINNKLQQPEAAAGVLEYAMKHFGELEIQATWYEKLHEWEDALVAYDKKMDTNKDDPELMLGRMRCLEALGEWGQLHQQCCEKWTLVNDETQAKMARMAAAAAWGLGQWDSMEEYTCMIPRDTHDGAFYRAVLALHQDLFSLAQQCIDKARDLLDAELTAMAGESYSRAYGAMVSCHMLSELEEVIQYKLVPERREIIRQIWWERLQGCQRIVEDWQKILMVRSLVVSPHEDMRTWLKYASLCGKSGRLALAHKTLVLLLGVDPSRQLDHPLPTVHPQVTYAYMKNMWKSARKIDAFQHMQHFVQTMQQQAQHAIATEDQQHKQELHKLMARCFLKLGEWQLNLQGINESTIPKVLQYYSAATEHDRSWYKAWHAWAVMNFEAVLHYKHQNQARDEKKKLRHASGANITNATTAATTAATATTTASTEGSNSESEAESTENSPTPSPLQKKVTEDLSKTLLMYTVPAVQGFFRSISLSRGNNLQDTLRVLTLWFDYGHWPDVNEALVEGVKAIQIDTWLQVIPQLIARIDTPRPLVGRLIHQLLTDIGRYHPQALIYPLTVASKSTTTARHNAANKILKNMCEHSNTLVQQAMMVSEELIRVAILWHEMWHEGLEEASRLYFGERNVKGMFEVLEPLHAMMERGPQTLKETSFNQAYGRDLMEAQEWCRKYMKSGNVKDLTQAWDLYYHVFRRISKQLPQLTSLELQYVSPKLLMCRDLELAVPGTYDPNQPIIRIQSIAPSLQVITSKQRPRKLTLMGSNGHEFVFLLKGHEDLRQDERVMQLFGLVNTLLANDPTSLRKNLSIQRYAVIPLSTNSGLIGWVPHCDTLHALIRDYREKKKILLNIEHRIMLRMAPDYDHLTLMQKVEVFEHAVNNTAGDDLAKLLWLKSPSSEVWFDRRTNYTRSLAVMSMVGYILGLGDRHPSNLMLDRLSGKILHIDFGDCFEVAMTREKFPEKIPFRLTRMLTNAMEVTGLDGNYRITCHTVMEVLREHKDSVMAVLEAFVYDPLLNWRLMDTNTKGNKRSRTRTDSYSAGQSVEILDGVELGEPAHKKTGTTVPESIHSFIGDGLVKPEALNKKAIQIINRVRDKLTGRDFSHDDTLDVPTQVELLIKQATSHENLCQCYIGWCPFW

SMILES	IC50 [µM]
CNC(=O)Nc1ccc(-c2nc(N3CCOC[C@@H]3C)cc(C3(S(=O)(=O)C4CC4)CC3)n2)cn1 [Example 14a, 1-[5-[4-(1-cyclopropylsulfonylcyclopropyl)-6-[(3S)-3-methylmorpholin-4-yl]pyrimidin-2-yl]pyridin-2-yl]-3-methylurea]	0.0136
C[C@H]1COCCN1c1cc(C2(S(=O)(=O)c3ccc(NCCO)cc3)CC2)nc(-c2cnc(NC(=O)NCCO)nc2)n1 [Example 14aa, 3-(2-hydroxyethyl)-1-[5-[4-[1-[4-(2-hydroxyethylamino)phenyl]sulf-onylcyclopropyl]-6-[(3S)-3-methylmorpholin-4-yl]pyrimidin-2-yl]pyrimidin-2-yl]urea]	0.0186
C[C@H]1COCCN1c1cc(C2(S(=O)(=O)C3CC3)CC2)nc(-c2ccc(NC(=O)NCCN(C)C)nc2)n1 [Example 14b, 1-[5-[4-(1-cyclopropylsulfonylcyclopropyl)-6-[(3S)-3-methylmorpholin-4-yl]pyrimidin-2-yl]pyridin-2-yl]-3-(2-dimethylaminoethyl)urea]	1.39
C[C@H]1COCCN1c1cc(C2(S(=O)(=O)C3CC3)CC2)nc(-c2ccc(NC(=O)NCCO)nc2)n1 [Example 14c, 1-[5-[4-(1-cyclopropylsulfonylcyclopropyl)-6-[(3S)-3-methylmorpholin-4-yl]pyrimidin-2-yl]pyridin-2-yl]-3-(2-hydroxyethyl)urea]	0.0401
C[C@H]1COCCN1c1cc(C2(S(=O)(=O)C3CC3)CC2)nc(-c2ccc(NC(=O)Nc3cnn(C)c3)nc2)n1 [Example 14d, 1-[5-[4-(1-cyclopropylsulfonylcyclopropyl)-6-[(3S)-3-methylmorpholin-4-yl]pyrimidin-2-yl]pyridin-2-yl]-3-(1-methylpyrazol-4-yl)urea]	0.0143
C[C@H]1COCCN1c1cc(C2(S(=O)(=O)c3ccc(F)cc3)CC2)nc(-c2cnc(NC(=O)NC3CC3)nc2)n1 [Example 14e, 3-cyclopropyl-1-[5-[4-[1-(4-fluorophenyl)sulfonylcyclopro-pyl]-6-[(3S)-3-methylmorpholin-4-yl]pyrimidin-2-yl]pyrimidin-2-yl]urea]	0.11
CNC(=O)Nc1ncc(-c2nc(N3CCOC[C@@H]3C)cc(C3(S(=O)(=O)c4ccc(F)cc4)CC3)n2)cn1 [Example 14f, 1-[5-[4-[1-(4-fluorophenyl)sulfonylcyclopro-pyl]-6-[(3S)-3-methylmorpholin-4-yl]pyrimidin-2-yl]pyrimidin-2-yl]-3-methylurea]	0.189
C[C@H]1COCCN1c1cc(C2(S(=O)(=O)c3ccc(F)cc3)CC2)nc(-c2cnc(NC(=O)NCCO)nc2)n1 [Example 14g, 1-[5-[4-[1-(4-fluorophenyl)sulfonylcyclopro-pyl]-6-[(3S)-3-methylmorpholin-4-yl]pyrimidin-2-yl]pyrimidin-2-yl]-3-(2-hydroxyethyl)urea]	0.0857
C[C@H]1COCCN1c1cc(C2(S(=O)(=O)c3ccc(F)cc3)CC2)nc(-c2cnc(NC(=O)Nc3cnn(C)c3)nc2)n1 [Example 14h, 1-[5-[4-[1-(4-fluorophenyl)sulfonylcyclopro-pyl]-6-[(3S)-3-methylmorpholin-4-yl]pyrimidin-2-yl]pyrimidin-2-yl]-3-(1-methylpyrazol-4-yl)urea]	0.14
C[C@H]1COCCN1c1cc(C2(S(=O)(=O)c3ccc(F)cc3)CC2)nc(-c2ccc(NC(=O)NC3CC3)nc2)n1 [Example 14i, 3-cyclopropyl-1-[5-[4-[1-(4-fluorophenyl)sulfonylcyclopro-pyl]-6-[(3S)-3-methylmorpholin-4-yl]pyrimidin-2-yl]pyridin-2-yl]urea]	0.0339
CNC(=O)Nc1ccc(-c2nc(N3CCOC[C@@H]3C)cc(C3(S(=O)(=O)c4ccc(F)cc4)CC3)n2)cn1 [Example 14j, 1-[5-[4-[1-(4-fluorophenyl)sulfonylcyclopro-pyl]-6-[(3S)-3-methylmorpholin-4-yl]pyrimidin-2-yl]pyridin-2-yl]-3-methylurea]	0.0129
C[C@H]1COCCN1c1cc(C2(S(=O)(=O)c3ccc(F)cc3)CC2)nc(-c2ccc(NC(=O)NCCN(C)C)nc2)n1 [Example 14k, 3-(2-dimethylaminoethyl)-1-[5-[4-[1-(4-fluorophenyl)sulfonylcyclopro-pyl]-6-[(3S)-3-methylmorpholin-4-yl]pyrimidin-2-yl]pyridin-2-yl]urea]	0.275
C[C@H]1COCCN1c1cc(C2(S(=O)(=O)c3ccc(F)cc3)CC2)nc(-c2ccc(NC(=O)NCCO)nc2)n1 [Example 14l, 1-[5-[4-[1-(4-fluorophenyl)sulfonylcyclopro-pyl]-6-[(3S)-3-methylmorpholin-4-yl]pyrimidin-2-yl]pyridin-2-yl]-3-(2-hydroxyethyl)urea]	0.0137
C[C@H]1COCCN1c1cc(C2(S(=O)(=O)c3ccc(F)cc3)CC2)nc(-c2ccc(NC(=O)Nc3cnn(C)c3)nc2)n1 [Example 14m, 1-[5-[4-[1-(4-fluorophenyl)sulfonylcyclopro-pyl]-6-[(3S)-3-methylmorpholin-4-yl]pyrimidin-2-yl]pyridin-2-yl]-3-(1-methylpyrazol-4-yl)urea]	0.0143
C[C@H]1COCCN1c1cc(C2(S(C)(=O)=O)CCCC2)nc(-c2ccc(NC(=O)NC3CC3)nc2)n1 [Example 14n, 3-cyclopropyl-1-[5-[4-[(3S)-3-methylmorpholin-4-yl]-6-(1-methylsulfonylcyclopentyl)pyri-midin-2-yl]pyridin-2-yl]urea]	0.0363
CNC(=O)Nc1ccc(-c2nc(N3CCOC[C@@H]3C)cc(C3(S(C)(=O)=O)CCCC3)n2)cn1 [Example 14o, 3-methyl-1-[5-[4-[(3S)-3-methylmorpholin-4-yl]-6-(1-methylsulfonylcyclopentyl)pyri-midin-2-yl]pyridin-2-yl]urea]	0.0217
C[C@H]1COCCN1c1cc(C2(S(C)(=O)=O)CCCC2)nc(-c2ccc(NC(=O)NCCN(C)C)nc2)n1 [Example 14p, 3-(2-dimethylaminoethyl)-1-[5-[4-[(3S)-3-methylmorpholin-4-yl]-6-(1-methylsulfonylcyclopentyl)pyri-midin-2-yl]pyridin-2-yl]urea]	0.537
C[C@H]1COCCN1c1cc(C2(S(C)(=O)=O)CCCC2)nc(-c2ccc(NC(=O)NCCO)nc2)n1 [Example 14q, 3-(2-hydroxyethyl)-1-[5-[4-[(3S)-3-methylmorpholin-4-yl]-6-(1-methylsulfonylcyclopentyl)pyri-midin-2-yl]pyridin-2-yl]urea]	0.0265

The remaining lines, values ahead:

IC50 [µM]	SMILES
0.0108	O=C(NCCO)Nc1ccc(-c2nc(N3CCOCC3)cc(C3(S(=O)(=O)C4CC4)CCCC3)n2)cc1 [Example 13l, 1-[4-[4-(1-cyclopropylsulfonylcyclopentyl)-6-morpholin-4-ylpyrimidin-2-yl]phenyl]-3-(2-hydroxyethyl)urea]
0.0532	CC(C)(CO)NC(=O)Nc1ccc(-c2nc(N3CCOCC3)cc(C3(S(=O)(=O)C4CC4)CCCC3)n2)cc1 [Example 13m, 1-[4-[4-(1-cyclopropylsulfonylcyclopentyl)-6-morpholin-4-ylpyrimidin-2-yl]phenyl]-3-(1-hydroxy-2-methylpropan-2-yl)urea]
0.997	CN(C)CCNC(=O)Nc1ccc(-c2nc(N3CCOCC3)cc(C3(S(=O)(=O)C4CC4)CCCC3)n2)cc1 [Example 13n, 1-[4-[4-(1-cyclopropylsulfonylcyclopentyl)-6-morpholin-4-ylpyrimidin-2-yl]phenyl]-3-(2-dimethylaminoethyl)urea]
0.0287	O=C(NCCCO)Nc1ccc(-c2nc(N3CCOCC3)cc(C3(S(=O)(=O)C4CC4)CCCC3)n2)cc1 [Example 13o, 1-[4-[4-(1-cyclopropylsulfonylcyclopentyl)-6-morpholin-4-ylpyrimidin-2-yl]phenyl]-3-(3-hydroxypropyl)urea]
0.00202	O=C(Nc1ccc(-c2nc(N3CCOCC3)cc(C3(S(=O)(=O)C4CC4)CCC3)n2)cc1)NC1CC1 [Example 13p, 3-cyclopropyl-1-[4-[4-(1-cyclopropylsulfonylcyclobutyl)-6-morpholin-4-ylpyrimidin-2-yl]phenyl]urea]
0.00192	CNC(=O)Nc1ccc(-c2nc(N3CCOCC3)cc(C3(S(=O)(=O)C4CC4)CCC3)n2)cc1 [Example 13q, 1-[4-[4-(1-cyclopropylsulfonylcyclobutyl)-6-morpholin-4-ylpyrimidin-2-yl]phenyl]-3-methylurea]
0.00198	O=C(NCCO)Nc1ccc(-c2nc(N3CCOCC3)cc(C3(S(=O)(=O)C4CC4)CCC3)n2)cc1 [Example 13r, 1-[4-[4-(1-cyclopropylsulfonylcyclobutyl)-6-morpholin-4-ylpyrimidin-2-yl]phenyl]-3-(2-hydroxyethyl)urea]
0.00846	CC(C)(CO)NC(=O)Nc1ccc(-c2nc(N3CCOCC3)cc(C3(S(=O)(=O)C4CC4)CCC3)n2)cc1 [Example 13s, 1-[4-[4-(1-cyclopropylsulfonylcyclobutyl)-6-morpholin-4-ylpyrimidin-2-yl]phenyl]-3-(1-hydroxy-2-methylpropan-2-yl)urea]
0.172	CN(C)CCNC(=O)Nc1ccc(-c2nc(N3CCOCC3)cc(C3(S(=O)(=O)C4CC4)CCC3)n2)cc1 [Example 13t, 1-[4-[4-(1-cyclopropylsulfonylcyclobutyl)-6-morpholin-4-ylpyrimidin-2-yl]phenyl]-3-(2-dimethylaminoethyl)urea]
0.00477	O=C(NCCCO)Nc1ccc(-c2nc(N3CCOCC3)cc(C3(S(=O)(=O)C4CC4)CCC3)n2)cc1 [Example 13u, 1-[4-[4-(1-cyclopropylsulfonylcyclobutyl)-6-morpholin-4-ylpyrimidin-2-yl]phenyl]-3-(3-hydroxypropyl)urea]
0.0465	C[C@H]1COCCN1c1cc(C2(S(=O)(=O)C3CC3)CC2)nc(-c2ccc(NC(=O)NC3CC3)nc2)n1 [Example 14, 3-Cyclopropyl-1-[5-[4-(1-cyclopropylsulfonylcyclopropyl)-6-[(3S)-3-methylmorpholin-4-yl]pyrimidin-2-yl]pyridin-2-yl]urea]
